What was measured:
[1] = Stability in human cryopreserved hepatocytes without and with cimetidine or furafylline (Example 5); type: in vitro ADME; settings: human, substrate 1 μM, read-out: t1/2
Protocol: The final incubation volume was 500 μL. Two control compounds were included with each species, alongside appropriate vehicle control.
The samples were analysed for mebendazole or ethoxycoumarin using LC-MS/MS.
The final incubation volume was 500 μL.
A positive control compound, ethoxycoumarin, for CYP1A2 was included. […] The samples were analysed for mebendazole or ethoxycoumarin using LC-MS/MS.

[2] = Stability in human liver microsomes without and with cimetidine or furafylline (Example 4); type: in vitro ADME; settings: substrate 1 μM; for half-life at 1 μM / microsomal CLint at 1 μM: human, liver microsomes
Protocol: A minus cofactor control incubation was included for each compound tested where 0.1 M phosphate buffer pH 7.4 was added instead of NADPH (minus NADPH). […] The samples were analysed for mebendazole or phenacetin using LC-MS/MS.
A minus cofactor control incubation was included for each compound tested where 0.1 M phosphate buffer pH 7.4 was added instead of cofactor (minus NADPH). […] The samples were analysed for mebendazole or phenacetin using LC-MS/MS.

[3] = pH 7.4, with cimetidine 30 μM, plus 30 μM cimetidine
[4] = pH 7.4, with cimetidine 100 μM, plus 100 μM cimetidine
[5] = pH 7.4, with cimetidine 300 μM, plus 300 μM cimetidine

SMILES: CCOc1ccc(NC(C)=O)cc1 [Phenacetin]
- half-life at 1 μM ([1]; cryopreserved hepatocytes (suspension), no inhibitor): 0.215 h
- half-life at 1 μM ([1]; cryopreserved hepatocytes, with cimetidine 30 μM, cimetidine 30 μM): 0.223 h
- half-life at 1 μM ([1]; cryopreserved hepatocytes, with cimetidine 100 μM, cimetidine 100 μM): 0.262 h
- half-life at 1 μM ([1]; cryopreserved hepatocytes, with cimetidine 300 μM, cimetidine 300 μM): 0.313 h
- half-life at 1 μM ([1]; cryopreserved hepatocytes, with furafylline 3 μM, furafylline 3 μM): 0.993 h
- half-life at 1 μM ([1]; cryopreserved hepatocytes, with furafylline 10 μM, furafylline 10 μM): 1.49 h
- half-life at 1 μM ([1]; cryopreserved hepatocytes, with furafylline 30 μM, furafylline 30 μM): 1.83 h
- half-life at 1 μM [2, 3]: 1.09 h
- microsomal CLint at 1 μM [2, 3]: 21.2 µL/min/mg
- half-life at 1 μM [2, 4]: 1.32 h
- microsomal CLint at 1 μM [2, 4]: 17.6 µL/min/mg
- half-life at 1 μM [2, 5]: 1.66 h
- microsomal CLint at 1 μM [2, 5]: 13.9 µL/min/mg
- microsomal CLint at 1 μM ([2]; pH 7.4, with furafylline 3 μM, plus 3 μM furafylline): 3 to 49 µL/min/mg
- microsomal CLint at 1 μM ([2]; pH 7.4, with furafylline 10 μM, plus 10 μM furafylline): 2 to 58 µL/min/mg
- microsomal CLint at 1 μM ([2]; pH 7.4, with furafylline 30 μM, plus 30 μM furafylline): 2.71 µL/min/mg
- half-life at 1 μM ([2]; pH 7.4, no inhibitor): 1.03 h
- microsomal CLint at 1 μM ([2]; pH 7.4, no inhibitor): 22.4 µL/min/mg
- CLint ([2]; plus 3 μM furafylline): 3.49 μL/min/mg protein
- CLint ([2]; plus 10 μM furafylline): 2.58 μL/min/mg protein

— patent publication US20220125765A1, “PHARMACEUTICAL COMBINATIONS COMPRISING MEBENDAZOLE AND A STRONG OR MODERATE CYP1A2 INHIBITOR” (ZEPHAPHARM LTD, priority 2019, published 2022)
